Assays:
bovine serum albumin = system: bovine serum albumin; parameters: method as in PMID 24456893, PMID 18779351, PMID 17569519; conditions: ref [12],[16],[17]; cited from earlier work
Protocol: (§1) Albumin is the most abundant protein in human serum (HSA, 45 mg/ml), followed in descending order by α1-antitrypsin (A1AT, 3.5 mg/ml), transferrin (2.5 mg/ml), α2-macroglobulin (2.5 mg/ml), haptoglobulin (1.8 mg/ml), low-density lipoprotein (LDL, 1.2 mg/ml), α1-acid glycoprotein (AGP, 0.8 mg/ml) and high-density lipoprotein (HDL, 0.6 mg/ml)[11]. These proteins are involved in the transportation of fatty acids, cholesterols, toxins and drugs in the blood stream.

human serum albumin = conditions: cited from earlier work
[1] = target: T1, protein D (albumin and α1-antitrypsin complex) (Bos taurus, UniProt P02769+P34955); assay: Fluorescence emission spectrum (blue shift), protein D; type: binding, bovine; conditions: protein D 0.75 μM, PC buffer, 25 °C, 30 min; excitation 285 nm, emission 300–450 nm; reagent up to: sarkosyl 320, TP4-A12I,A15I 120, ibuprofen 24, phenytoin 20 μM
T1 construct: The active components were further purified by fast performance liquid chromatography (FPLC) Mono Q and S12 column chromatography from the 70% saturated fraction; from tissue; host or cells: fetal bovine serum (70% ammonium sulfate fraction, FPLC Mono Q and Superose 12)
Protocol: (§2) The mixtures were excited by 285 nm and its emission spectra were recorded between 300 and 450 nm using a temperature-controlled fluorimeter (FP8500, Jasco, Japan)[13].

protein A (albumin) = protein A (albumin) (Bos taurus, UniProt P02769); assay: Fluorescence emission spectrum (blue shift), protein A; type: binding, bovine; parameters: The homogeneities of collected protein A (albumin), protein B (α1-antitrypsin), protein C (serotransferrin) and protein D complex; from tissue; host or cells: fetal bovine serum (70% ammonium sulfate fraction, FPLC Mono Q); conditions: protein A 0.75 μM, PC buffer, 25 °C, 30 min; excitation 285 nm, emission 300–450 nm; reagent up to: sarkosyl 320, TP4-A12I,A15I 120, ibuprofen 24, phenytoin 20 μM
Protocol: as §2

[2] = system: Escherichia coli K-12 (MG1655); assay: Antimicrobial (bactericidal) activity against E. coli, effect of serum or serum proteins; type: cell-based; conditions: 5% (v/v) FBS in PBS, 37 °C; remaining viable cells (cfu)
Protocol: The Gram-negative bacteria Escherichia coli K-12 (MG1655) was cultured and plated in/on Luria–Bertani broth/agar plate (Merck Millipore, Darmstadt, Germany). The Gram-positive Staphylococcus aureus (ATCC 6538P) was cultured and plated in tryptic soy broth/agar (BD, MD, USA). The fungus Candida albicans (ATCC 14,053) was cultured and plated in YM broth/agar (BD, MD, USA). The bacteria were grown overnight, washed, and diluted 1:2000 in phosphate buffered saline (PBS), pH 7.5 or DMEM (Life Biotech, California, USA), pH 7.4. Bacteria (ca. 1 × 10^6 colony-forming units, cfu) were mixed with antimicrobial peptides (AMP) in 100 μl PBS and incubated at 37 °C (for bacteria) and at 30 °C (for fungus). Serial dilutions of each AMP-treated bacteria in PBS/DMEM supplemented with FBS were prepared and plated for the determination of remaining viable cells (expressed as cfu). At least three independent experiments were performed for each assay to determine the average value with standard deviation. MBC was defined as the lowest AMP concentration that kills 99.9% of the original inoculum.

[3] = target: T1, protein D (albumin and α1-antitrypsin complex); assay: Band shift of AMPs by protein D; type: binding, bovine; conditions: AMP 4 μg; protein 10 μg (Suppl. Fig. 3a); PC buffer, room temperature, 30 min; 8% horizontal native PAGE
fetal bovine serum (FBS) = assay: Band shift of AMPs by fetal bovine serum; type: binding; conditions: 10–40% FBS; AMP 4 μg; PC buffer, room temperature, 30 min; horizontal native 8% PAGE
Protocol: (§3) Various AMPs (4 μg each) were incubated with fetal bovine serum (FBS) components at room temperature in 10 μl PC buffer for 30 min and subjected to horizontal native 8% PAGE, pH8.0 or pH8.8, and Coomassie Blue staining.

[4] = target: T2, protein B (α1-antitrypsin) (Bos taurus, UniProt P34955); assay: Band shift of AMPs by protein B; type: binding, bovine; parameters: The homogeneities of collected protein A (albumin), protein B (α1-antitrypsin), protein C (serotransferrin) and protein D complex; from tissue; host or cells: fetal bovine serum (70% ammonium sulfate fraction, FPLC Mono Q); conditions: AMP 4 μg; protein 10 μg (Suppl. Fig. 3a); PC buffer, room temperature, 30 min; 8% horizontal native PAGE
T2 sequence (P34955 25-416): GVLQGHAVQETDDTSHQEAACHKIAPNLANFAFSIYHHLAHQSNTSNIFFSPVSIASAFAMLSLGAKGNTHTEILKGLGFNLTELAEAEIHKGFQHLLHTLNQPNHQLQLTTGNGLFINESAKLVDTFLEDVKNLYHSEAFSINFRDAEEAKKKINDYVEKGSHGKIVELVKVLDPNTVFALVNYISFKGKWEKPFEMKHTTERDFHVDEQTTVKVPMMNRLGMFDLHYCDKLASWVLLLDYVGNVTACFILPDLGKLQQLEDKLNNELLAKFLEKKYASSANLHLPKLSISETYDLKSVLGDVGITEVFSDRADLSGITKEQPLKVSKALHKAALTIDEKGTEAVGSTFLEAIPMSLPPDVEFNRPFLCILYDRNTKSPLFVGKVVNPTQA
Protocol: as §3

human serum components = conditions: cited from earlier work
Protocol: as §1

trypsin = assay: Antitrypsin activity analysis; type: biochemical; conditions: trypsin 2 ng (0.2 μg/ml) pre-incubated 30 min, PC buffer, 37 °C, 15% reduced SDS-PAGE; for inhibition of proteolytic activity of trypsin toward SAAP159: substrate SAAP159 4 μg (0.4 mg/ml); for inhibition of proteolytic activity of trypsin toward TP4: substrate TP4 2 μg (0.2 mg/ml)
Protocol: The inhibitions of trypsin’s proteolytic activity by serum components on peptides TP4 and SAAP159 were determined as follows. Freshly diluted trypsin (2 ng; 0.2 μg/ml) was pre-incubated with various concentrations of serum components in PC buffer for 30 min before the mixture was added to TP4 (2 μg; 0.2 mg/ml) or SAAP159 (4 μg/; 0.4 mg/ml) peptides in 10 μl PC buffer at 37 °C for 30 min. The digested peptide fragments were analyzed by 15% reduced SDS-PAGE and Coomassie Blue staining.

[5] = target: biotinylated TP4-A12I,A15I (tilapia); assay: BLI; Octet RED384; biotinylated TP4-A12I,A15I (10 μM) immobilised on a Streptavidin biosensor; serial dilutions of serum components in PC buffer as analyte; global fit (1:1)

T1 sequence (P02769 25-607, one chain of several): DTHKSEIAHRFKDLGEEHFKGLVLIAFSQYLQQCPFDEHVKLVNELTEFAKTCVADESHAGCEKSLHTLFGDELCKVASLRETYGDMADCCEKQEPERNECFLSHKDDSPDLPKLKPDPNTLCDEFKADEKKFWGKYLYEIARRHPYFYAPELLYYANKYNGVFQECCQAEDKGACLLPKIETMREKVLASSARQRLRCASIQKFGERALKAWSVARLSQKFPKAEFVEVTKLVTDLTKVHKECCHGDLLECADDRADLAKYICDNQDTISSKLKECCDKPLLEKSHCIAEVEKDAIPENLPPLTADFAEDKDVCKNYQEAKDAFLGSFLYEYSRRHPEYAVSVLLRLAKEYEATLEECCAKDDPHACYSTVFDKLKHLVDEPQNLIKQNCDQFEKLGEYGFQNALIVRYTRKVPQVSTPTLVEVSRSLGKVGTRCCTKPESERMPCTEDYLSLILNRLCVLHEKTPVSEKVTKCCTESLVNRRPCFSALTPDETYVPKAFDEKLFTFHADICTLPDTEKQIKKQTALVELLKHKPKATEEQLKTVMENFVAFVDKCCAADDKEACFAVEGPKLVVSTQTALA
Chain of protein A (albumin) (P02769 25-607): as the sequence (P02769 25-607, one chain of several) above

Molecule: CO/N=C(\C(=O)N[C@@H]1C(=O)N2C(C(=O)O)=C(CSc3nc(=O)c(=O)[nH]n3C)CS[C@H]12)c1csc(N)n1 [ceftriaxone]
- bound and inhibited by bovine serum albumin (bovine serum albumin): bound and inhibited
- bound and inhibited by human serum albumin (human serum albumin; ref [12],[16],[17]): bound and inhibited

Molecule: COc1c(N2C[C@@H]3CCCN[C@@H]3C2)c(F)cc2c(=O)c(C(=O)O)cn(C3CC3)c12 [moxifloxacin]
- bound and inhibited by bovine serum albumin (bovine serum albumin): bound and inhibited

Molecule: CCCCCCCCCCCC(=O)N(C)CC(=O)[O-].[Na+] [sarkosyl]
- blue shift of fluorescence emission spectrum, protein D [1]: caused blue shifts
- blue shift of fluorescence emission spectrum, protein A (protein A (albumin)): caused blue shifts

Molecule: CC(=O)CC(c1ccccc1)c1c(O)c2ccccc2oc1=O (stereo not drawn) [warfarin]
- bound to site I of human albumin (human serum albumin; site I, ref [8]–[10]): More than 90%

Molecule: Iseganan [reference compound]
- effect of FBS on antimicrobial activity against E. coli [2]: serum-mediated repression
- binding to protein D (band shift) [3]: also bound by protein D
- mobility of AMP in band shift assay with FBS (fetal bovine serum (FBS)): retarded
- binding to protein B (band shift) [4]: not by protein A and protein B

Molecule: Polymyxin B
- effect of FBS on antimicrobial activity against E. coli [2]: not

Molecule: daptomycin
- bound by human serum albumin (human serum albumin): 90-94%
- bound to human serum components (human serum components): 90-94%
- order of binding to human serum components (human serum components): albumin > > α1-antitrypsin > low-density lipoprotein > high-density lipoprotein > transferrin

Molecule: protein A: bovine serum albumin, free form, purified from fetal bovine serum
- inhibition of proteolytic activity of trypsin toward SAAP159 (trypsin): only minimally affected
- inhibition of proteolytic activity of trypsin toward TP4 (trypsin): only minimally affected

Molecule: protein D complex (albumin and α1-antitrypsin) (from UniProt P02769 25-607; P34955 25-416)
- Kd [5]: 0.0217 µM

Molecule: protein D: albumin and α1-antitrypsin complex linked by disulfide bond, from fetal bovine serum
- inhibition of proteolytic activity of trypsin toward SAAP159 (trypsin): repressed
- inhibition of proteolytic activity of trypsin toward TP4 (trypsin): repressed

B1: protein B: bovine α1-antitrypsin, free form, purified from fetal bovine serum (protein)
chain: GVLQGHAVQETDDTSHQEAACHKIAPNLANFAFSIYHHLAHQSNTSNIFFSPVSIASAFAMLSLGAKGNTHTEILKGLGFNLTELAEAEIHKGFQHLLHTLNQPNHQLQLTTGNGLFINESAKLVDTFLEDVKNLYHSEAFSINFRDAEEAKKKINDYVEKGSHGKIVELVKVLDPNTVFALVNYISFKGKWEKPFEMKHTTERDFHVDEQTTVKVPMMNRLGMFDLHYCDKLASWVLLLDYVGNVTACFILPDLGKLQQLEDKLNNELLAKFLEKKYASSANLHLPKLSISETYDLKSVLGDVGITEVFSDRADLSGITKEQPLKVSKALHKAALTIDEKGTEAVGSTFLEAIPMSLPPDVEFNRPFLCILYDRNTKSPLFVGKVVNPTQA
- inhibition of proteolytic activity of trypsin toward SAAP159 (trypsin): repressed
- inhibition of proteolytic activity of trypsin toward TP4 (trypsin): repressed

Reference: article PMC7809101, “Fetal bovine serum albumin inhibits antimicrobial peptide activity and binds drug only in complex with α1-antitrypsin” (Scientific Reports, 2021)
